# ChEMBL document CHEMBL3244272, “Folate antagonists. 15. 2,3-Diamino-6-(2-naphthylsulfonyl)quinazoline and related 2,4-diamino-6-[(phenyl and naphthyl)sulfinyl and sulfonyl]quinazolines, a potent new class of antimetabolites with phenomenal antimalarial activity” (J Med Chem, 1979)
# Calls of active or inactive are those of the source. The rule behind the calls is not given here.
# Key:
# Plasmodium vivax [1] = experiment: Antimalarial activity against Plasmodium vivax VietnamPalo Alto in po once daily dosed Owl monkey assessed as curative dose compound treated for 7 days; format: functional
# Plasmodium falciparum [2] = experiment: Antimalarial activity against chloroquine-resistant, pyrimethamine-sensitive Plasmodium falciparum Vietnam Oak Knoll in Aotus monkey assessed as dose required to >50% cures compound treated for 7 days; format: functional
# Plasmodium falciparum [3] = experiment: Antimalarial activity against chloroquine-sensitive, pyrimethamine-resistant Plasmodium falciparum Malayan Camp CH/Q infected in Aotus monkey assessed as dose required to >50% cures compound treated for 7 days; format: functional
# Plasmodium falciparum [4] = experiment: Antimalarial activity against Plasmodium falciparum Vietnam Oak Knoll in po once daily dosed Owl monkey assessed as curative dose compound treated for 7 days; format: functional
# Plasmodium vivax [5] = experiment: Antimalarial activity against Plasmodium vivax New Guinea Chesson in po once daily dosed Owl monkey assessed as curative dose compound treated for 7 days; format: functional
# Plasmodium falciparum [6] = experiment: Antimalarial activity against Plasmodium falciparum Vietnam Smith in po once daily dosed Owl monkey assessed as curative dose compound treated for 7 days; format: functional
# Plasmodium falciparum [7] = experiment: Antimalarial activity against Plasmodium falciparum Malayan Camp CH/Q infected in po once daily dosed Owl monkey assessed as curative dose compound treated for 7 days; format: functional
# Pseudomonas aeruginosa = experiment: Antibacterial activity against Pseudomonas aeruginosa 28 assessed as growth inhibition; format: functional
# Plasmodium gallinaceum [8] = experiment: Antimalarial activity against trophozoite-induced Plasmodium gallinaceum infected in chick assessed as cured at 120 mg/kg, sc single dose; format: functional, organism-based; parameters: dose 120 mg/kg
# Gallus gallus = experiment: Toxicity in trophozoite-induced Plasmodium gallinaceum infected in chick assessed as death at 120 mg/kg, sc single dose measured within 48 hrs; format: organism-based; parameters: dose 120 mg/kg, route subcutaneous; details: chicken, in vivo
# Plasmodium berghei [9] = experiment: Antimalarial activity against trophozoite-induced Plasmodium berghei infected in mouse assessed as change in mean survival time at 160 mg/kg, sc single dose after 72 hrs of infection; format: functional; details: route subcutaneous
# Staphylococcus aureus [10] = experiment: Antibacterial activity against Staphylococcus aureus S18713 assessed as growth inhibition; format: functional
# Plasmodium berghei [11] = experiment: Antimalarial activity against trophozoite-induced Plasmodium berghei infected in mouse assessed as change in mean survival time at 80 mg/kg, sc single dose after 72 hrs of infection; format: functional; details: route subcutaneous
# Plasmodium gallinaceum [12] = experiment: Antimalarial activity against trophozoite-induced Plasmodium gallinaceum infected in chick assessed as mean survival time at 120 mg/kg, sc single dose (reference value: 4 days); format: functional; details: route subcutaneous
# Shigella sonnei = experiment: Antibacterial activity against Shigella sonnei C-10 assessed as growth inhibition; format: functional
# Staphylococcus aureus [13] = experiment: Antibacterial activity against Staphylococcus aureus UC-76 assessed as growth inhibition; format: functional
# Enterococcus faecalis = experiment: Antibacterial activity against Streptococcus faecalis MGH-2 assessed as growth inhibition; format: functional
# [14] = tested on: Mycobacterium tuberculosis; experiment: Antibacterial activity against Mycobacterium tuberculosis H37Rv assessed as growth inhibition; format: functional
# Escherichia coli = experiment: Antibacterial activity against Escherichia coli Vogel assessed as growth inhibition; format: functional
# Plasmodium berghei [15] = experiment: Antimalarial activity against trophozoite-induced Plasmodium berghei infected in mouse assessed as change in mean survival time at 20 mg/kg, sc single dose after 72 hrs of infection; format: functional; details: route subcutaneous
# Plasmodium berghei [16] = experiment: Antimalarial activity against trophozoite-induced Plasmodium berghei infected in mouse assessed as change in mean survival time at 10 mg/kg, sc single dose after 72 hrs of infection; format: functional; details: route subcutaneous
# Plasmodium berghei [17] = experiment: Antimalarial activity against trophozoite-induced Plasmodium berghei infected in mouse assessed as change in mean survival time at 40 mg/kg, sc single dose after 72 hrs of infection; format: functional; details: route subcutaneous
# Plasmodium berghei [18] = experiment: Antimalarial activity against trophozoite-induced Plasmodium berghei infected in sc dosed mouse assessed as minimum curative dose; format: functional
# Plasmodium berghei [19] = experiment: Antimalarial activity against trophozoite-induced Plasmodium berghei infected in mouse assessed as change in mean survival time at 2.5 mg/kg, sc single dose after 72 hrs of infection; format: functional; details: route subcutaneous
# Plasmodium berghei [20] = experiment: Antimalarial activity against trophozoite-induced Plasmodium berghei infected in mouse assessed as change in mean survival time at 5 mg/kg, sc single dose after 72 hrs of infection; format: functional; details: route subcutaneous
# Plasmodium gallinaceum [21] = experiment: Antimalarial activity against sporozoite-induced Plasmodium gallinaceum infected in chick assessed as change in cured at 7.5 mg/kg, sc single dose; format: functional; details: route subcutaneous
# Plasmodium berghei [22] = experiment: Antimalarial activity against trophozoite-induced Plasmodium berghei infected in mouse assessed as change in mean survival time at 1.25 mg/kg, sc single dose after 72 hrs of infection; format: functional; details: route subcutaneous
# Plasmodium gallinaceum [23] = experiment: Antimalarial activity against sporozoite-induced Plasmodium gallinaceum infected in chick assessed as change in cured at 15 mg/kg, sc single dose; format: functional; details: route subcutaneous
# Plasmodium gallinaceum [24] = experiment: Antimalarial activity against sporozoite-induced Plasmodium gallinaceum infected in chick assessed as change in cured at 30 mg/kg, sc single dose; format: functional; details: route subcutaneous
# Plasmodium gallinaceum [25] = experiment: Antimalarial activity against sporozoite-induced Plasmodium gallinaceum infected in chick assessed as change in cured at 60 mg/kg, sc single dose; format: functional; details: route subcutaneous
# Plasmodium berghei [26] = experiment: Antimalarial activity against trophozoite-induced Plasmodium berghei infected in mouse assessed as change in mean survival time at 640 mg/kg, sc single dose after 72 hrs of infection; format: functional; details: route subcutaneous
# Plasmodium berghei [27] = experiment: Antimalarial activity against trophozoite-induced Plasmodium berghei infected in mouse assessed as change in mean survival time at 320 mg/kg, sc single dose after 72 hrs of infection; format: functional; details: route subcutaneous
# Plasmodium gallinaceum [28] = experiment: Antimalarial activity against sporozoite-induced Plasmodium gallinaceum infected in chick assessed as change in cured at 120 mg/kg, sc single dose; format: functional; details: route subcutaneous
SMILES,MIC (Pseudomonas aeruginosa),MST (Plasmodium berghei [9]),MIC (Staphylococcus aureus [10]),MST (Plasmodium berghei [11]),MIC (Shigella sonnei),MIC (Staphylococcus aureus [13]),MIC (Enterococcus faecalis),MIC [14],MIC (Escherichia coli),MST (Plasmodium berghei [15]),MST (Plasmodium berghei [16]),MST (Plasmodium berghei [17]),MCD (Plasmodium berghei [18]),MST (Plasmodium berghei [19]),MST (Plasmodium berghei [20]),MST (Plasmodium gallinaceum [21]),MST (Plasmodium berghei [22]),MST (Plasmodium gallinaceum [23]),MST (Plasmodium gallinaceum [24]),MST (Plasmodium gallinaceum [25]),other results
C=C[C@H]1CN2CC[C@H]1C[C@H]2[C@H](O)c1ccnc2ccc(OC)cc12.Cl [QUININE HYDROCHLORIDE],–,–,–,–,–,–,–,–,–,–,–,–,–,–,–,–,–,–,–,–,CD90 (Plasmodium vivax [1]): 40 mg/kg; Activity (Plasmodium falciparum [2]): 40 mg/kg; Activity (Plasmodium falciparum [3]): 80 mg/kg; CD90 (Plasmodium falciparum [4]): 80 mg/kg; CD90 (Plasmodium vivax [5]): 40 mg/kg; CD90 (Plasmodium falciparum [6]): >80 mg/kg; CD90 (Plasmodium falciparum [7]): 20 mg/kg
Nc1nc(N)c2cc([S+]([O-])c3c(F)c(F)cc(F)c3F)ccc2n1 (stereo unspecified),> 25 µg/mL,16.7 days,1.5 µg/mL,13.9 days,> 25 µg/mL,1 µg/mL,< 0.25 µg/mL,25 µg/mL,> 25 µg/mL,0.9 days,0.5 days,10.7 days,80 mg/kg,–,–,–,–,–,–,–,Activity (Plasmodium gallinaceum [8]): Active; Activity (Gallus gallus): Toxic; MST (Plasmodium gallinaceum [12]): 14.8 days
Nc1nc(N)c2cc([S+]([O-])c3cccc(C(F)(F)F)c3)ccc2n1 (stereo unspecified),> 25 µg/mL,–,< 0.25 µg/mL,–,> 25 µg/mL,< 0.25 µg/mL,< 0.25 µg/mL,–,> 25 µg/mL,21.4 days,12.7 days,–,40 mg/kg,4.1 days,9.1 days,6.4 days,1.1 days,–,–,–,–
CCN(CC)CCCC(C)Nc1ccnc2cc(Cl)ccc12 (stereo unspecified) [CHLOROQUINE],–,–,–,–,–,–,–,–,–,–,–,–,–,–,–,–,–,–,–,–,CD90 (Plasmodium vivax [1]): 2.5 mg/kg; Activity (Plasmodium falciparum [2]): >20 mg/kg; Activity (Plasmodium falciparum [3]): 5 mg/kg; CD90 (Plasmodium falciparum [4]): 2 mg/kg; CD90 (Plasmodium vivax [5]): 2.5 mg/kg; CD90 (Plasmodium falciparum [6]): >20 mg/kg; CD90 (Plasmodium falciparum [7]): 5 mg/kg
Nc1nc(N)c2cc(S(=O)(=O)c3cccc(-c4ccccc4)c3)ccc2n1,> 25 µg/mL,–,1.5 µg/mL,–,> 25 µg/mL,1 µg/mL,< 0.25 µg/mL,> 25 µg/mL,> 25 µg/mL,21.9 days,13.9 days,16.9 days,40 mg/kg,9.3 days,13.6 days,2.4 days,4.1 days,0 days,0 days,–,–
Nc1nc(N)c2cc([S+]([O-])c3ccccc3)ccc2n1 (stereo unspecified),> 25 µg/mL,–,< 0.25 µg/mL,15.9 days,15 µg/mL,< 0.25 µg/mL,< 0.25 µg/mL,20 µg/mL,1.5 µg/mL,4.9 days,1.1 days,11.3 days,160 mg/kg,–,–,0 days,–,0 days,0 days,–,–
Nc1nc(N)c2cc([S+]([O-])c3ccc(F)cc3)ccc2n1 (stereo unspecified),–,–,–,16.9 days,–,–,–,–,–,8.9 days,5.5 days,11.5 days,20 mg/kg,–,–,–,–,1 days,0.7 days,0.7 days,–
COc1ccc([S+]([O-])c2ccc3nc(N)nc(N)c3c2)cc1 (stereo unspecified),–,25.9 days,–,13.2 days,–,–,–,–,–,2.7 days,0.7 days,10.5 days,20 mg/kg,–,–,–,–,–,–,–,Activity (Plasmodium gallinaceum [8]): Active; Activity (Gallus gallus): Toxic; MST (Plasmodium gallinaceum [12]): 24.2 days
Nc1nc(N)c2cc(S(=O)(=O)c3ccccc3-c3ccccc3)ccc2n1,> 25 µg/mL,0.7 days,> 25 µg/mL,0.5 days,> 25 µg/mL,> 25 µg/mL,0.25 µg/mL,–,> 25 µg/mL,0.3 days,–,0.3 days,640 mg/kg,–,–,–,–,–,–,–,MST (Plasmodium berghei [26]): 1.1 days; MST (Plasmodium berghei [27]): 0.7 days
Nc1nc(N)c2cc(S(=O)(=O)c3ccc(Cl)c(Cl)c3)ccc2n1,> 25 µg/mL,–,1 µg/mL,–,20 µg/mL,0.5 µg/mL,< 0.25 µg/mL,20 µg/mL,2.5 µg/mL,11.2 days,10.3 days,–,10 mg/kg,3.5 days,5.9 days,–,1.1 days,–,–,–,MST (Plasmodium gallinaceum [28]): 0 days
Cc1c([S+]([O-])c2ccc3ccccc3c2)ccc2nc(N)nc(N)c12 (stereo unspecified),> 25 µg/mL,–,> 25 µg/mL,–,> 25 µg/mL,> 25 µg/mL,< 0.25 µg/mL,–,> 25 µg/mL,–,–,–,20 mg/kg,10.7 days,22.9 days,3.7 days,9.7 days,3.7 days,3.7 days,3.7 days,–
Nc1nc(N)c2cc([S+]([O-])c3ccccc3-c3ccccc3)ccc2n1 (stereo unspecified),> 25 µg/mL,3.3 days,5 µg/mL,0.5 days,> 25 µg/mL,2.5 µg/mL,< 0.25 µg/mL,25 µg/mL,> 25 µg/mL,0.3 days,0.3 days,0.3 days,640 mg/kg,–,–,–,–,0 days,0 days,3.7 days,MST (Plasmodium berghei [26]): 12.7 days; MST (Plasmodium berghei [27]): 5.7 days
COc1cccc(S(=O)(=O)c2ccc3nc(N)nc(N)c3c2)c1,> 25 µg/mL,13.2 days,2 µg/mL,12.5 days,> 25 µg/mL,1 µg/mL,< 0.25 µg/mL,25 µg/mL,2.5 µg/mL,3.9 days,1.1 days,8.9 days,320 mg/kg,–,–,–,–,0 days,0 days,0 days,Activity (Plasmodium gallinaceum [8]): Active; Activity (Gallus gallus): Toxic; MST (Plasmodium gallinaceum [12]): 13.2 days; MST (Plasmodium berghei [27]): 23.9 days
